According to patent US12685742B2, “Application of stachyose in preparation of drug for treating castration-resistant prostate cancer” (priority 2021, dated 2026):

Key:
L-DTP (Enza) cells = assay: CCK8 cell survival and CI value (Calcusyn) in drug-tolerant L-DTP (Enza) cells; assay type: cell-based; details: L-DTP (Enza) cells produced after continuous Enza for 9 days
From the text: (§1) Finally, Calcusyn software was used for calculating a CI value in L-DTP cells.

PRDX5 = PRDX5 immunohistochemistry of prostate tissue slices, C-MYC-over-expressed prostate cancer mouse model; assay type: in vivo, mice; details: 30 d after drug tolerance relapse, immunohistochemical positive cells
From the text: A C-MYC (Hi-Myc)-over-expressed spontaneous prostate cancer mouse model was constructed, and at 4 months, the mice developed mPIN/Cancer transition. […] Then, the necks of some mice were severed, and the prostate cancers of the mice were taken, photographed and weighed. […] Then, the necks of the mice were severed, and the prostate cancers of the mice were taken, photographed, weighed and subjected to experiments including immunohistochemistry.

[1] = system: C-MYC-over-expressed prostate cancer mouse model; assay: C-MYC (Hi-Myc)-over-expressed spontaneous prostate cancer mouse model, prostate weight and HE staining; assay type: in vivo, mice
Protocol: A C-MYC (Hi-Myc)-over-expressed spontaneous prostate cancer mouse model was constructed, and at 4 months, the mice developed mPIN/Cancer transition. At the moment, the mice were randomly divided into an NC control group (intragastrical administration with solvents) and an Enza administration group. Then, intragastrical administration was performed every three days, and Enza administration was performed at 10 mg/Kg for a total of 30 days. Then, the necks of some mice were severed, and the prostate cancers of the mice were taken, photographed and weighed. […] Then, mice (mice aged 6 months) were randomly divided into: an NC control group (intragastrical administration with solvents all the time), an Enza single-drug group 1, an Enza single-drug group 2, a Stac single-drug group 1, a Stac single-drug group 2 and an Enza and Stac combination group, the corresponding administration treatment was performed, and all mice were intragastrically administered once every three days. The dosage of Enza in the Enza single-drug group 1 was kept at 10 mg/Kg each time, the dosage of Enza in the Enza single-drug group 2 was kept at 90 mg/Kg each time, the dosage of Stac in the Stac single-drug group 1 was kept at 80 mg/Kg each time, the dosage of Stac in the Stac single-drug group 2 was kept at 90 mg/Kg each time, the dosages of Enza and Stac in the Enza and Stac combination group were kept at 10 mg/Kg and 80 mg/Kg each time, and the administration was performed for a total of 30 days. Then, the necks of the mice were severed, and the prostate cancers of the mice were taken, photographed, weighed and subjected to experiments including immunohistochemistry.

LNCaP cells = assay: Production of DTP/DTEP cells from LNCaP cells by EPI and Enza, cell counting; assay type: cell-based; details: 1×10^6 LNCaP cells seeded, one value given for EPI and Enza; for number of LNCaP-DTP cells as percentage of the initial seed cells: 9 days drug treatment; for number of LNCaP-DTEP cells as percentage of the initial seed cells: 33 days drug treatment
From the text: In the period, for replacement, a fresh drug-containing medium was used every three days for culture, some cells (DTP cells) were collected for subsequent experiments after 9 days, and the remaining cells continued to be treated with drugs. In the period, for replacement, a fresh drug-containing medium was used every three days for culture, and DTEP cells were collected after 33 days for subsequent experiments. After the DTP and DTEP cells were produced, the cells were digested and counted to calculate the percentage of the cells in 1×10^6 cells. The collected NC, DTP and DTEP cells were used for subsequent Western Blot experiments: the three groups of cells were subjected to cell lysis, protein extraction and quantification, SDS-PAGE gel electrophoresis, membrane transfer, blocking, primary antibody incubation, secondary antibody incubation and development, then, the expression changes of AR-FL and its related target proteins and AR-Vs and its related target proteins were observed, and the expression changes of cell cycle-related proteins were observed. Flow cytometry: dead cells were stained by a PI-stained cycle kit, and cell cycle changes were determined by a flow cytometry.

L-DTP (EPI) cells = assay: CCK8 cell survival and CI value (Calcusyn) in drug-tolerant L-DTP (EPI) cells; assay type: cell-based; details: L-DTP (EPI) cells produced after continuous EPI for 9 days
From the text: as §1

AR = AR immunohistochemistry of prostate tissue slices, C-MYC-over-expressed prostate cancer mouse model; assay type: in vivo, mice; details: 30 d after drug tolerance relapse, immunohistochemical positive cells
From the text: Then, the necks of some mice were severed, and the prostate cancers of the mice were taken, photographed and weighed. […] Then, the necks of the mice were severed, and the prostate cancers of the mice were taken, photographed, weighed and subjected to experiments including immunohistochemistry.

| Structure (SMILES) | inhibition rate (L-DTP (Enza) cells) | PRDX5 expression/% (PRDX5; Enza 10 mg/Kg) | PRDX5 expression/% (PRDX5; Enza 90 mg/Kg) | prostate weight compared with NC control group ([1]; Enza 10 mg/Kg intragastric every three days, 30 days, from 4 months of age) | Average of prostate weights of mice ([1]; Enza 10 mg/Kg, 30 d of administration after drug tolerance relapse, intragastric every three days) | Average of prostate weights of mice ([1]; Enza 90 mg/Kg, 30 d of administration after drug tolerance relapse, intragastric every three days) | Average of prostate weights of mice ([1]; continued Enza administration, after 90 days, drug tolerance relapse (NC control 98.2 mg)) | Average of prostate weights of mice ([1]; continuous Enza 10 mg/Kg intragastric every three days, 30 days (NC control 88.7 mg)) | number of LNCaP-DTP cells as percentage of the initial seed cells (LNCaP cells) | number of LNCaP-DTEP cells as percentage of the initial seed cells (LNCaP cells) | inhibition rate (L-DTP (EPI) cells) | PRDX5 expression/% (PRDX5; Stac 80 mg/Kg) | PRDX5 expression/% (PRDX5; Stac 90 mg/Kg) | Average of prostate weights of mice ([1]; Stac 80 mg/Kg, 30 d of administration after drug tolerance relapse, intragastric every three days) | Average of prostate weights of mice ([1]; Stac 90 mg/Kg, 30 d of administration after drug tolerance relapse, intragastric every three days) | treatment effect of single use after drug tolerance (prostate weight) ([1]; single use of Stac compared with single use of Enza, after drug tolerance relapse) | AR expression/% (AR; Stac 80 mg/Kg) | AR expression/% (AR; Stac 90 mg/Kg) |
| --- | --- | --- | --- | --- | --- | --- | --- | --- | --- | --- | --- | --- | --- | --- | --- | --- | --- | --- |
| CNC(=O)c1ccc(N2C(=S)N(c3ccc(C#N)c(C(F)(F)F)c3)C(=O)C2(C)C)cc1F [Enza, Enzalutamide] | no obvious inhibiting effect | 78.4% | 80.0% | reduced by half | 54.42 mg | 53.83 mg | 77.1 mg | 43.9 mg | 103.11% | 110.92% |  |  |  |  |  |  |  |  |
| CC(C)(c1ccc(OCC(O)CO)cc1)c1ccc(OCC(O)CCl)cc1 (stereo not drawn) [EPI, EPI-001] |  |  |  |  |  |  |  |  | 103.11% | 110.92% | no obvious inhibiting effect |  |  |  |  |  |  |  |
| OC[C@H]1O[C@H](OC[C@H]2O[C@H](OC[C@H]3O[C@H](O[C@]4(CO)O[C@H](CO)[C@@H](O)[C@@H]4O)[C@H](O)[C@@H](O)[C@@H]3O)[C@H](O)[C@@H](O)[C@H]2O)[C@H](O)[C@@H](O)[C@H]1O [Stac, Stachyose] | 62.47% |  |  |  |  |  |  |  |  |  | 67.48% | 68.2% | 60.9% | 50.86 mg | 47.50 mg | better than that of the single use of Enza | 61.5% | 57.4% |
